The source of these data is patent US5919668A, “Non-reducing saccharide and its production and use” (Kabushiki Kaisha Hayashibara Seibutsu Kagaku Kenkyujo, priority 1994, dated 1999).

Data set [1] relates to pig pancreas alpha-amylase. The data set can be described thus: Degradation by pig pancreas alpha-amylase. Format: biochemical. The settings on record: for G1 (glucose) in degradation product by alpha-amylase / G2 (maltose) in degradation product by alpha-amylase / G3 (maltotriose) in degradation product by alpha-amylase / PI in degradation product by alpha-amylase / PII in degradation product by alpha-amylase: pH6.9, 37° C., 18 hours. Here is the method: (§1) The non-reducing saccharide preparations PI, PII, PIII, PIV and PV as substrates prepared in Experiment 4 were subjected to pig pancreas alpha-amylase, rice alpha-glucosidase and acetone-pulverized rat small intestine enzyme, all of which were products of Sigma Chemical Co., St Louis, Mo., USA, and the degradation products were analyzed on high-performance liquid chromatography for saccharide composition. The reaction by alpha-amylase was carried out by dissolving 10 mg of either substrate in 1 ml of 50 mM phosphate buffer (pH6.9), adding thereto one unit of alpha-amylase and incubating at 37° C. for 18 hours. The reaction by alpha-glucosidase was conducted similarly as in the case of alpha-amylase except that 50 mM acetate buffer (pH4.0) was used. In the case of acetone-pulverized rat small intestine enzyme, the reaction was conducted similarly as in the case of alpha-amylase except that 50 mM maleic acid buffer (pH6.0) was used.

The nature of data set [2]: Maillard reaction (coloration with glycine, absorbance at 480 nm). It is filed as physicochemical. Conditions: for Coloration degree at 480 nm: 10% saccharide, 1% glycine, 50 mM phosphate buffer pH7.0, 100° C., 90 minutes, 1 cm cuvette; for Coloration degree relative to maltooligosaccharides as material: 480 nm, with glycine. Here is the method: Solutions of 10% saccharide preparation PI, PII, PIII, PIV or PV prepared in Experiment 4 and 1% glycine in 50 mM phosphate buffer (pH7.0) were incubated at 100° C. for 90 minuets, cooled and determined in 1 cm cuvette for absorbance at 480 nm. As control, maltotriose, maltotetraose, maltopentaose, maltohexaose and maltoheptaose which were used as the starting materials were treated similarly as above and determined for absorbance at 480 nm.
10% High-purity trehalose preparation, purity of 99.5%, obtained by the method in Experiment 17 and 1% glycine in 50 mM phosphate buffer (pH7.0) was incubated at 100° C. for 90 minutes, cooled and measured in lcm cuvette for absorbance at 480 nm. As control, glucose and maltose were treated similarly as above and then measured for absorbance at 480 nm.

The target in data set [3] is T1, trehalose-releasing enzyme (Rhizobium sp. M-11, UniProt Q53238).
T1 construct: M-11, about 58-68 kDa
T1 sequence (Q53238 1-596): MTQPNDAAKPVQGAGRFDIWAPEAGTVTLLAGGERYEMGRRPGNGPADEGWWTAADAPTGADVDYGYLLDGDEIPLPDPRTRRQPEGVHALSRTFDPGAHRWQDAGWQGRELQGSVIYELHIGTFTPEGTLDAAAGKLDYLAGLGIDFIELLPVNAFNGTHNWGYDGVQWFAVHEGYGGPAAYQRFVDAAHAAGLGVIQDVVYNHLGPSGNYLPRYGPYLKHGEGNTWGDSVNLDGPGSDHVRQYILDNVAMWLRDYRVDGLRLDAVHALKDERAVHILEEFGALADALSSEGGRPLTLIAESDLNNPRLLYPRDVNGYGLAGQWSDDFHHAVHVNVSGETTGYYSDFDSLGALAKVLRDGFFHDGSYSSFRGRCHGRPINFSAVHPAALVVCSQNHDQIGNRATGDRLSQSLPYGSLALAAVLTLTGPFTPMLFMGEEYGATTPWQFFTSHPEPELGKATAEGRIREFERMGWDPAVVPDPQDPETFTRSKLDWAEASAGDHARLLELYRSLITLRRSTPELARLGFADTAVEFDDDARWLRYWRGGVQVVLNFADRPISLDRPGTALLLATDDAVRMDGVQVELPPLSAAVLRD
It is filed as biochemical, Rhizobium species M-11. Conditions: for Composition: trehalose formed / Composition: reducing saccharide formed: 20% substrate, 2 units/g, 40° C., pH7.0, 48 hours; for Composition: reducing saccharide formed: glucose, maltose, maltotriose, maltotetraose or maltopentaose respectively; for Composition: residual substrate: trehalose-releasing enzyme, 48 h, pH 7. How it is done: Alpha-glycosyl trehaloses as substrates were prepared in accordance with the method described in Japanese Patent Application No. 349,216/93. More particularly, 20% aqueous solutions of maltotriose, maltotetraose, maltopentaose, maltohexaose or maltoheptaose as reducing partial starch hydrolysate were added with 2 units/g substrate solid of a purified non-reducing saccharide-forming enzyme obtained by the method in […], reacted at 40° C. and pH7.0 for 48 hours, heated for inactivation, filtered, deionized, concentrated in conventional manner and applied to ion exchange column chromatography on a strongly-acidic cation exchange "XT-1016" in sodium form. The ion exchange resin was packed in 3 jacketed-stainless steel columns, inner diameter of 2.0 cm, length of 1 m, and the columns were cascaded, loaded with 5 v/v % reaction saccharide liquid against the resin and injected with 55° C. water at SV0.13 for fractionation while keeping the temperature inside the columns at 55° C., thus obtaining high-purity preparations of non-reducing saccharides with glucose polymerization degrees of 3 or higher.
20% Aqueous solutions of these five types of non-reducing saccharides or alpha-glycosyl trehaloses were prepared, added with 2 units/g substrate solid of the purified trehalose-releasing enzyme obtained in Experiment 15, reacted at 40° C. and pH7.0 for 48 hours, deionized and subjected to high-performance liquid chromatography on "WAKO BEADS WB-T-330" for analysis of reaction products. As control, maltotriose, maltotetraose, maltopentaose, maltohexaose and maltoheptaose were subjected to the purified trehalose-releasing enzyme similarly as above and then analyzed on high-performance liquid chromatography.

For the next data set, the system named is beta-amylase. The data set can be described thus: Degradation by beta-amylase. It is filed as biochemical. An excerpt:
Considering the reaction characteristics of glucoamylase, these saccharides very likely bear structures where glucose molecule(s) is bound to trehalose molecule via alpha1,4 or alpha-1,6 linkage: Saccharide PI is a non-reducing saccharide with a glucose polymerization degree of 3 where one glucose molecule is bound to one trehalose molecule; saccharide PII, another non-reducing saccharide with a glucose polymerization degree of 4 where two glucose molecules are bound to one trehalose molecule; saccharide PIII, still another non-reducing saccharide with a glucose polymerization degree of 5 where three glucose molecules are bound to one trehalose molecule; saccharide PIV, still another non-reducing saccharide with a glucose polymerization degree of 6 where four glucose molecules are bound to one trehalose molecule; and saccharide PV, still another non-reducing saccharide with a polymerization degree of 7 where five glucose molecules are bound to one trehalose molecule.

The subject of the next data set is glucoamylase. In words: Enzymatic hydrolysis by glucoamylase. The settings on record: for Molar ratio (glucose/trehalose): degradation product by glucoamylase; for Glucose in degradation product by glucoamylase / Trehalose in degradation product by glucoamylase: pH4.5, 40° C., 6 hours. It is filed as biochemical. How it is done:
Fifty milligrams of the non-reducing saccharide preparation PI, PII, PIII, PIV or PV prepared in Experiment 4 was dissolved in 1 ml of 50 mM acetate buffer (pH4.5), added with one unit of the glucoamylase commercialized by Seikagaku Corp., Tokyo, Japan, incubated at 40° C. for 6 hours for enzymatic hydrolysis and analyzed for degradation products on high-performance liquid chromatography, thus detecting glucose and trehalose as sole products. The noted glucose contents, trehalose contents and their molar ratios were as shown in Table 5.

Data set [4] in a line: Reducing power by the Somogyi-Nelson method, represented in terms of DE. It is filed as physicochemical. The settings on record: high-purity preparations, Somogyi-Nelson method. Here is the method:
The high-purity preparations of the newly formed saccharides were determined for reducing power by the Somogyi-Nelson method and represented in terms of DE.

For data set [5], the system named is acetone-pulverized rat small intestine enzyme. The data set can be described thus: Degradation by acetone-pulverized rat small intestine enzyme. Conditions: for Glucose in degradation product by acetone-powdered rat small intestine enzyme / Others in degradation product by acetone-powdered rat small intestine enzyme / Trehalose in degradation product by acetone-powdered rat small intestine enzyme: pH6.0, 37° C., 18 hours. Format: biochemical. How it is done:
as §1

SMILES strings stand for the structures.

In the case of `OC[C@H]1O[C@H](O[C@H]2O[C@H](CO)[C@@H](O[C@H]3O[C@H](CO)[C@@H](O[C@H]4O[C@H](CO)[C@@H](O[C@H]5O[C@H](CO)[C@@H](O)[C@H](O)[C@H]5O)[C@H](O)[C@H]4O)[C@H](O)[C@H]3O)[C@H](O)[C@H]2O)[C@H](O)[C@@H](O)[C@@H]1O` [PIII, alpha-maltotriosyl trehalose], in data set [1], the “Degradation by alpha-amylase (in words)” value is reported as “degraded by alpha-amylase into smaller oligosaccharides”, the “G1 (glucose) in degradation product by alpha-amylase” value (“G1 (glucose) in degradation product” for short) turned out to be 1.2%, the “G2 (maltose) in degradation product by alpha-amylase” value (from here on “G2 (maltose) in degradation product”) was determined as 33.0% and the “G3 (maltotriose) in degradation product by alpha-amylase” value (from here on “G3 (maltotriose) in degradation product”) turned out to be 0%. Further, in data set [1], the “PI in degradation product by alpha-amylase” value (from here on “PI in degradation product”) was found to be 61.0% and the “PII in degradation product by alpha-amylase” value (“PII in degradation product” below) was determined as 4.8%. For the same compound, in data set [2], the “Coloration degree at 480 nm” value was determined as 0.012 and the “Coloration degree relative to maltooligosaccharides as material” value is recorded as 3-6%. In data set [3], the “Composition: trehalose formed” value is recorded as 39.5%, the “Composition: reducing saccharide formed” value amounted to 60.0% and the “Composition: residual substrate” value stood at 0.5%. Moreover, the “Degradation by beta-amylase (in words)” value with beta-amylase is “degraded into one maltose molecule and one saccharide PI molecule”. Further, in the data set with glucoamylase, the “Degradation by glucoamylase (in words)” value is “three glucose molecules and one trehalose molecule”; the “Molar ratio (glucose/trehalose)” value was determined as 3.02; the “Glucose in degradation product by glucoamylase” value (“Glucose … by glucoamylase” below) is 61.4%; the “Trehalose in degradation product by glucoamylase” value (shortened to “Trehalose … by glucoamylase”) was 38.6%. The “DE of saccharide preparation” value in data set [4] was 0.10. For the same compound, in data set [5], the “Degradation by acetone-pulverized rat small intestine enzyme (in words)” value is reported as “degradable”, the “Glucose in degradation product by acetone-powdered rat small intestine enzyme” value turned out to be 62.0%, the “Others in degradation product by acetone-powdered rat small intestine enzyme” value (shortened to “Others in degradation product”) stood at 0.4% and the “Trehalose in degradation product by acetone-powdered rat small intestine enzyme” value was determined as 37.6%.

Consider `OC[C@H]1O[C@H](O[C@H]2O[C@H](CO)[C@@H](O[C@H]3O[C@H](CO)[C@@H](O)[C@H](O)[C@H]3O)[C@H](O)[C@H]2O)[C@H](O)[C@@H](O)[C@@H]1O` [PI, alpha-glucosyl trehalose], for which, in data set [1], the “Degradation by alpha-amylase (in words)” value is “hardly degraded by alpha-amylase”, the “G1 (glucose) in degradation product” value turned out to be 0%, the “G2 (maltose) in degradation product” value came out at 0.4% and the “G3 (maltotriose) in degradation product” value was determined as 2.3%. Further, in data set [1], the “PI in degradation product” value was found to be 97.3% and the “PII in degradation product” value is given as 0%. For the same compound, in data set [2], the “Coloration degree at 480 nm” value stood at 0.027 and the “Coloration degree relative to maltooligosaccharides as material” value is reported as 3-6%. In addition, in data set [3], the “Composition: trehalose formed” value is 17.5%, the “Composition: reducing saccharide formed” value is reported as 6.5% and the “Composition: residual substrate” value was 76.0%. Further, the “Degradation by beta-amylase (in words)” value with beta-amylase is on record as “not degraded”. Further, in the data set on glucoamylase, the “Degradation by glucoamylase (in words)” value was “degraded by glucoamylase into one glucose molecule and one trehalose molecule”; the “Molar ratio (glucose/trehalose)” value is recorded as 1.07; the “Glucose … by glucoamylase” value came to 36.2%; the “Trehalose … by glucoamylase” value is on record as 63.8%. In addition, the “DE of saccharide preparation” value in data set [4] was determined as 0.83. Also, in data set [5], the “Degradation by acetone-pulverized rat small intestine enzyme (in words)” value is listed as “degradable”, the “Glucose in degradation product by acetone-powdered rat small intestine enzyme” value came to 37.2%, the “Others in degradation product” value was determined as 0.4% and the “Trehalose in degradation product by acetone-powdered rat small intestine enzyme” value is recorded as 62.4%.

For the compound `OC[C@H]1O[C@H](O[C@H]2O[C@H](CO)[C@@H](O[C@H]3O[C@H](CO)[C@@H](O[C@H]4O[C@H](CO)[C@@H](O[C@H]5O[C@H](CO)[C@@H](O[C@H]6O[C@H](CO)[C@@H](O)[C@H](O)[C@H]6O)[C@H](O)[C@H]5O)[C@H](O)[C@H]4O)[C@H](O)[C@H]3O)[C@H](O)[C@H]2O)[C@H](O)[C@@H](O)[C@@H]1O` [PIV, alpha-maltotetraosyl trehalose], in data set [1], the “Degradation by alpha-amylase (in words)” value is listed as “degraded by alpha-amylase into smaller oligosaccharides”, the “G1 (glucose) in degradation product” value is listed as 1.6%, the “G2 (maltose) in degradation product” value stood at 7.5% and the “G3 (maltotriose) in degradation product” value amounted to 40.4%. For the same compound, in data set [1], the “PI in degradation product” value amounted to 47.2% and the “PII in degradation product” value is listed as 3.3%. Moreover, the “Coloration degree relative to maltooligosaccharides as material” value in data set [2] was 3-6%. For the same compound, in data set [3], the “Composition: trehalose formed” value is recorded as 34.2%, the “Composition: reducing saccharide formed” value was determined as 65.5% and the “Composition: residual substrate” value came out at 0.3%. Further, the “Degradation by beta-amylase (in words)” value in the data set with beta-amylase was “one maltose molecules and one saccharide PII molecule”. Besides, in the data set on glucoamylase, the “Degradation by glucoamylase (in words)” value was “four glucose molecules and one trehalose molecule”; the “Molar ratio (glucose/trehalose)” value is reported as 4.09; the “Glucose … by glucoamylase” value stood at 68.3%; the “Trehalose … by glucoamylase” value was found to be 31.7%. In addition, the “DE of saccharide preparation” value in data set [4] stood at 0.27. In data set [5], the “Degradation by acetone-pulverized rat small intestine enzyme (in words)” value is on record as “degradable”, the “Glucose in degradation product by acetone-powdered rat small intestine enzyme” value is recorded as 68.8%, the “Others in degradation product” value was 0.4% and the “Trehalose in degradation product by acetone-powdered rat small intestine enzyme” value stood at 30.8%.
